{"source": "patent EP0205068B1", "about": "“Lysergic-acid amides, process for their preparation and medicaments containing them” (ARZNEIMITTELWERK DRESDEN GmbH, priority 1985, dated 1986)", "key": {"Vena femoralis": {"tested_on": "Vena femoralis", "assay": "Contraction of isolated human vessel preparations, vein", "parameters": "species or system menschlichen", "description": "(§1) 6. Untersuchungen an isolierten menschlichen Gefäßpräparaten\n(§2) (Vena und Arteria femoralis)\n(§3) Glusa, E. und F. Markwardt, Pharmacolgy 24 (1982) 287 sowie Naunyn-Schmiedebergs-Arch. Pharmacol. 323 (1983) 101"}, "[1]": {"tested_on": "transcallosal ausgelöster Potentiale", "assay": "Influence on transcallosally evoked potentials in awake rats fixed in a stereotactic apparatus", "type": "in vivo, weiblichen Wistarratten", "conditions": "1 mg/kg i.p.", "description": "3. Beeinflussung transcallosal ausgelöster Potentiale\nMethodik in Anlehnung an C.Giurgea und F.Moyersoons, Arch.Int.Pharmacodyn.199,(1972) 67\nDie Untersuchung wurde an wachen, im stereotaktischen Apparat fixierten weiblichen Wistarratten durchgeführt."}, "Maus": {"tested_on": "Maus", "assay": "Porsolt swim test (immobility duration)", "type": "in vivo"}, "Ratten": {"tested_on": "Ratten", "assay": "SFT test (spinal cord fixation time)", "type": "in vivo", "description": "4. SFT-Test (Spinal cord fixation time)\nC.Giurgea und F.Mouravieff-Lesmisse Arch.Intern.Pharmacodyn.191 (1971) 279\nEs ist die Anzahl der Tiere mit persistierender Asymmetrie zur Gesamtzahl der eingesetzten Ratten aufgeführt."}, "[2]": {"tested_on": "vas deferens des Meerschweinchens", "assay": "Noradrenaline antagonism on isolated vas deferens", "conditions": "Cavia porcellus, read-out: Hemmung (x̄ ± sx̄) in %", "description": "5. Noradrenalin-Antagonismus\nNoradrenalin-Antagonismus am vas deferens des Meerschweinchens"}, "Arteria femoralis": {"tested_on": "Arteria femoralis", "assay": "Contraction of isolated human vessel preparations, artery", "parameters": "species or system menschlichen", "description": "as §1, §2, §3"}}, "note": "Several values for one entry are separate records, joined by “and”; a condition that tells them apart may be missing. Identical values can stand only once.", "data": [{"smiles": "CC(=O)OCCN(CCOC(C)=O)C(=O)[C@@H]1C[C@@H]2c3cccc4[nH]cc(c34)C[C@H]2N(C)C1", "note": "[1 a, 9,10-Dihydrolysergsäure-bis-(β-acetoxyethyl)amid]", "values": [{"measurement": "pharmakologisch wertvolle Nebenwirkungen", "setting": "Vena femoralis; statement in words", "value": "Tonisierung der Venen"}, {"measurement": "Amplitudenbeeinflussung b.max.Reizintensität neg.Welle", "setting": "[1]; 60'", "value": "0,40±0,03 µV"}, {"measurement": "Amplitudenbeeinflussung b.max.Reizintensität pos.Welle", "setting": "[1]; 60'", "value": "0,42±0,03 µV"}, {"measurement": "Amplitudenbeeinflussung b.mittl.Reizintensität neg.Welle", "setting": "[1]; 60'", "value": "0,23±0,03 µV"}, {"measurement": "Amplitudenbeeinflussung b.mittl.Reizintensität pos.Welle", "setting": "[1]; 60'", "value": "*0,26±0,03 µV"}, {"measurement": "Amplitudenbeeinflussung b.max.Reizintensität neg.Welle", "setting": "[1]; 120'", "value": "*0,40±0,02 µV"}, {"measurement": "Amplitudenbeeinflussung b.max.Reizintensität pos.Welle", "setting": "[1]; 120'", "value": "0,41±0,02 µV"}, {"measurement": "Amplitudenbeeinflussung b.mittl.Reizintensität neg.Welle", "setting": "[1]; 120'", "value": "*0,25±0,03 µV"}, {"measurement": "Amplitudenbeeinflussung b.mittl.Reizintensität pos.Welle", "setting": "[1]; 120'", "value": "*0,27±0,03 µV"}, {"measurement": "Amplitudenbeeinflussung b.max.Reizintensität neg.Welle", "setting": "[1]; 180'", "value": "0,39±0,02 µV"}, {"measurement": "Amplitudenbeeinflussung b.max.Reizintensität pos.Welle", "setting": "[1]; 180'", "value": "0,42±0,02 µV"}, {"measurement": "Amplitudenbeeinflussung b.mittl.Reizintensität neg.Welle", "setting": "[1]; 180'", "value": "0,23±0,03 µV"}, {"measurement": "Amplitudenbeeinflussung b.mittl.Reizintensität pos.Welle", "setting": "[1]; 180'", "value": "*0,25±0,02 µV"}, {"measurement": "Amplitudenbeeinflussung b.max.Reizintensität neg.Welle", "setting": "[1]; VW = Vorwert (pre-dose value)", "value": "0,34±0,03 µV"}, {"measurement": "Amplitudenbeeinflussung b.max.Reizintensität pos.Welle", "setting": "[1]; VW = Vorwert (pre-dose value)", "value": "0,38±0,03 µV"}, {"measurement": "Amplitudenbeeinflussung b.mittl.Reizintensität neg.Welle", "setting": "[1]; VW = Vorwert (pre-dose value)", "value": "0,18±0,02 µV"}, {"measurement": "Amplitudenbeeinflussung b.mittl.Reizintensität pos.Welle", "setting": "[1]; VW = Vorwert (pre-dose value)", "value": "0,19±0,02 µV"}, {"measurement": "Immobilitätsdauer (sec) x̄ ± sx̄", "setting": "Maus; 1 mg/kg i.p.", "value": "202,6 ± 1,8 sec"}, {"measurement": "Anzahl der Tiere mit persistierender Asymmetrie zur Gesamtzahl der eingesetzten Ratten", "setting": "Ratten; Dosis ip. 2 mg/kg", "value": "5/10"}, {"measurement": "inhibition at 10 µM", "setting": "[2]; Konzentration 10^-5 mol/l", "value": 60.7, "unit": "%"}, {"measurement": "inhibition at 1 µM", "setting": "[2]; Konzentration 10^-6 mol/l", "value": 14.7, "unit": "%"}, {"measurement": "inhibition at 0.1 µM", "setting": "[2]; Konzentration 10^-7 mol/l", "value": 4.4, "unit": "%"}]}, {"smiles": "CC(=O)OCCN(CCOC(C)=O)C(=O)[C@@H]1C[C@@H]2c3cccc4c3c(cn4C)C[C@H]2N(C)C1", "note": "[1 c, 1-Methyl-9,10-dihydrolysergsäure-bis-(ß-acetoxyethyl)-amid]", "values": [{"measurement": "Immobilitätsdauer (sec) x̄ ± sx̄", "setting": "Maus; 3 mg/kg p.o.", "value": "203,6 ± 5,9 sec"}]}, {"smiles": "CCC(=O)OCCN(CCOC(=O)CC)C(=O)[C@@H]1C[C@@H]2c3cccc4c3c(cn4C)C[C@H]2N(C)C1", "note": "[1 e, 1-Methyl-9,10-dihydrolysergsäure-bis-(ß-propionylethyl)-amid]", "values": [{"measurement": "Immobilitätsdauer (sec) x̄ ± sx̄", "setting": "Maus; 3 mg/kg p.o.", "value": "210,0 ± 3,8 sec"}]}, {"smiles": "CC(=O)OCCN(CCOC(C)=O)C(=O)[C@@H]1C[C@@H]2c3cccc4c3c(cn4Cc3cccc(F)c3)C[C@H]2N(C)C1", "note": "[1 l, 1-(3'-Fluorbenzyl)-9,10-dihydrolysergsäure-bis-(ß-acetoxyethyl)-amid]", "values": [{"measurement": "Immobilitätsdauer (sec) x̄ ± sx̄", "setting": "Maus; 1 mg/kg i.p.", "value": "199,4 ± 2,3 sec"}]}, {"smiles": "CN1C[C@H](C(=O)N[C@]2(C)O[C@@]3(O)[C@@H]4CCCN4C(=O)[C@H](Cc4ccccc4)N3C2=O)C[C@@H]2c3cccc4[nH]cc(c34)C[C@H]21", "note": "[Dihydro-ergo-tamin]", "values": [{"measurement": "%-Kontraktion bezogen auf NA", "setting": "Vena femoralis", "value": "61 ± 24% and 52 ± 18%"}, {"measurement": "%-Kontraktion bezogen auf NA", "setting": "Arteria femoralis", "value": "8,8 ± 8%"}]}, {"smiles": "CO[C@]12C[C@@H](COC(=O)c3cncc(Br)c3)CN(C)[C@@H]1Cc1cn(C)c3cccc2c13", "note": "[Nicergolin, 10a-Methoxy-1,6-dimethyl-ergolin-8ß-methanol-(5'-bromnicotinat), reference compound]", "values": [{"measurement": "Amplitudenbeeinflussung b.max.Reizintensität neg.Welle", "setting": "[1]; 60'", "value": "0,41±0,03 µV"}, {"measurement": "Amplitudenbeeinflussung b.max.Reizintensität pos.Welle", "setting": "[1]; 60'", "value": "0,40±0,02 µV"}, {"measurement": "Amplitudenbeeinflussung b.mittl.Reizintensität neg.Welle", "setting": "[1]; 60'", "value": "0,24±0,02 µV"}, {"measurement": "Amplitudenbeeinflussung b.mittl.Reizintensität pos.Welle", "setting": "[1]; 60'", "value": "0,24±0,01 µV"}, {"measurement": "Amplitudenbeeinflussung b.max.Reizintensität neg.Welle", "setting": "[1]; 120'", "value": "0,38±0,02 µV"}, {"measurement": "Amplitudenbeeinflussung b.max.Reizintensität pos.Welle", "setting": "[1]; 120'", "value": "0,36±0,02 µV"}, {"measurement": "Amplitudenbeeinflussung b.mittl.Reizintensität neg.Welle", "setting": "[1]; 120'", "value": "0,23±0,02 µV"}, {"measurement": "Amplitudenbeeinflussung b.mittl.Reizintensität pos.Welle", "setting": "[1]; 120'", "value": "0,22±0,02 µV"}, {"measurement": "Amplitudenbeeinflussung b.max.Reizintensität neg.Welle", "setting": "[1]; 180'", "value": "0,39±0,04 µV"}, {"measurement": "Amplitudenbeeinflussung b.max.Reizintensität pos.Welle", "setting": "[1]; 180'", "value": "0,39±0,04 µV"}, {"measurement": "Amplitudenbeeinflussung b.mittl.Reizintensität neg.Welle", "setting": "[1]; 180'", "value": "0,21±0,01 µV"}, {"measurement": "Amplitudenbeeinflussung b.mittl.Reizintensität pos.Welle", "setting": "[1]; 180'", "value": "0,19±0,02 µV"}, {"measurement": "Amplitudenbeeinflussung b.max.Reizintensität neg.Welle", "setting": "[1]; VW = Vorwert (pre-dose value)", "value": "0,39±0,02 µV"}, {"measurement": "Amplitudenbeeinflussung b.max.Reizintensität pos.Welle", "setting": "[1]; VW = Vorwert (pre-dose value)", "value": "0,39±0,02 µV"}, {"measurement": "Amplitudenbeeinflussung b.mittl.Reizintensität neg.Welle", "setting": "[1]; VW = Vorwert (pre-dose value)", "value": "0,23±0,02 µV"}, {"measurement": "Amplitudenbeeinflussung b.mittl.Reizintensität pos.Welle", "setting": "[1]; VW = Vorwert (pre-dose value)", "value": "0,23±0,02 µV"}, {"measurement": "Immobilitätsdauer (sec) x̄ ± sx̄", "setting": "Maus; 1 mg/kg i.p.", "value": "196,7 ± 5,6 sec"}, {"measurement": "Anzahl der Tiere mit persistierender Asymmetrie zur Gesamtzahl der eingesetzten Ratten", "setting": "Ratten; Dosis ip. 1 mg/kg", "value": "2/10"}, {"measurement": "Anzahl der Tiere mit persistierender Asymmetrie zur Gesamtzahl der eingesetzten Ratten", "setting": "Ratten; Dosis ip. 3 mg/kg", "value": "4/6"}]}]}
